For orientation: melting point means the temperature of the solid-liquid transition.

Some results are limits rather than exact numbers.

With `CC(=O)Oc1c(C)c(C)c(O)c(C(C)=NOCCOc2ccc(CC3SC(=O)NC3=O)cc2)c1C` (stereo not given), the melting point fell in the range of 60 to 75 °C. `O=C(c1ccc(Oc2cccc3ccccc23)cc1)C(O)O` gave a melting point of 93 to 96 °C. In turn, `CSc1nc(N)cc(OCCOCP(=O)(O)O)n1` gave a melting point of 210 to 211 °C. The result for `CCOC(=O)C(=O)Nc1ccc2c(c1)-n1cc(C(=O)OC)nc1CO2` reads 186 to 188 °C. `ON=C(Cl)c1ccc(C(Cl)=NO)cc1` came in with a melting point of 178 to 180 °C. With `CC(=O)N(C)C(=O)ON=C1SCC(=O)NC1(C)C`, the melting point was in the range of 218 to 220 °C. On to `CN1CCN(c2ccc3[nH]c(=O)oc(=O)c3c2)CC1`, for which the melting point came out at 285 °C. `CCC(OC(C)=O)C(=O)Nc1ccc(I)cc1Cl` (stereo not given) showed a melting point of 156 to 158 °C.

In turn, `C=C1c2ccn3c(C)c(C)nc3c2N[C@H](c2ccccc2)[C@H]1O` had a melting point of 199 to 202 °C.

As to `CCOc1cc2ncc(C#N)c(Nc3ccc(OCc4cccc(F)c4)c(Cl)c3)c2cc1NC(=O)/C=C/CN(C)C`, the melting point lay within 165 to 167 °C. As for `O=C(/C=C/C=C(c1ccccc1)c1ccccc1)Oc1ccc([N+](=O)[O-])cc1`, the melting point fell in the range of 113 to 115 °C. Consider `O=C(c1ccccc1)n1cc(F)c(=O)n(C(=O)c2ccccc2)c1=O`, for which the melting point stood at 195 °C. With `CC1(C)OC[C@H](Cc2ccccc2)N1C(=O)Cn1cc(-c2ccc(-c3ccccc3)cc2)cn1`, the melting point is 150 to 151 °C. In the case of `COC(=O)c1ccc(C#N)cc1Cl`, the melting point fell in the range of 90 to 92 °C. For `CC(=O)NCc1cccc(C#N)c1`, the melting point was 94 to 96 °C.

With `COC(=O)CCc1sc(NC(=O)C[C@H]2O[C@H](c3cccc(OC)c3OC)c3cc(Cl)ccc3N(CC(C)(C)COC(C)=O)C2=O)nc1-c1ccccc1`, the melting point turned out to be 168 °C. Next, `CCCCCCN1c2ccc(OC)cc2C(C)(C)C12C=Cc1cc([N+](=O)[O-])cc(OC)c1S2` (stereo not given): 97 to 98 °C; `O=C1CC2CCCCC2C(=O)C1C(=O)c1ccc(Cl)cc1[N+](=O)[O-]` (stereo not given): 112 °C. The result for `CCCCC(CC)n1nnc2c(Nc3c(Cl)cc(OC)cc3OC)nc(C)cc21` (stereo not given) reads 155 to 156 °C; that for `COC(CN(c1nc2ccccc2o1)[C@H]1c2cc(C#N)ccc2OC(C)(C)[C@@H]1O)OC`, 66 °C; that for `CN(C)C(=O)c1ccc(S(=O)(=O)c2ccc(NC(=O)[C@@](C)(O)C(F)(F)F)c(Cl)c2)cc1`, 120 °C. The result for `O=C(O)c1ccc(-c2cc(-c3ccc(C(F)(F)F)cc3)on2)cc1` reads greater than 300 °C; that for `COc1ccc(S(=O)(=O)N2c3ccccc3-c3ccccc3C2C)cc1` (stereo not given), 167 to 169 °C; that for `N#CN1CCC(=C2c3ccccc3Sc3cccnc32)CC1`, 192 to 193 °C. `COC(=O)C1=C(C)NC(C)=C(C(=O)OCCN2CCN(C(c3ccccc3)c3ccccc3)CC2)C1c1ccccc1Cl` (stereo not given): the melting point was in the range of 81 to 83 °C. The result for `CCc1cc(OC)c(S(C)(=O)=O)cc1C(=O)N=C(N)N` reads 192 to 195 °C. For the compound `O=C(Nc1cccc(Cl)c1)c1ccccc1CN1C(=O)C2(COc3cc4c(cc32)CCO4)c2ccccc21` (stereo not given), the melting point was greater than 230 °C. `NS(=O)(=O)NC(=O)N1C[C@H](NC(=O)Cc2ccccc2)C1=O` came in with a melting point of 137 °C. `O=C(NCCCc1ccncc1)N(CC=Cc1ccccc1)CCC12CC3CC(CC(C3)C1)C2` gave a melting point of 130 to 134 °C. The result for `COC(=O)c1cccc2cc(Cc3cc(NC(C)=O)ncn3)ccc12` reads 158 to 160 °C. `CC1(C)CC(C(O)CNc2nc(NCc3ccccc3)nc(NCC(O)C3CC(C)(C)NC(C)(C)C3)n2)CC(C)(C)N1` (stereo not given) showed a melting point of 88 °C.

`Cc1c(Br)c(O)c(Cc2ccc(C(C)C)cc2)c(C)c1N(Cc1ccccc1)C(=O)CC(C)(C)C` came in with a melting point of 107 to 108 °C. Compound `CSc1ccc(C=C2C=CC=C2)cc1` registered a melting point of 105 to 106 °C. On to `COC/C=C(C)/C=C/C(F)=C(C)/C=C/c1c(C)sc(C)c1C`, for which the melting point lay in the range of 117 to 118 °C. Regarding `O=C1c2ccccc2C(=O)N1Cc1ccccc1[N+](=O)[O-]`, the melting point lay within 190 to 209 °C. Regarding `Cc1ccc(CCOc2cccc3c(Cl)ccnc23)cc1`, the melting point was in the range of 74 to 75 °C. Compound `COC(=O)c1ccc(Cl)cc1N(C)S(C)(=O)=O` showed a melting point of 73 to 75 °C. In turn, `O=C1CCCC2CN(C(Cc3ccccc3)=NCc3cccs3)CC12` (stereo not given) registered a melting point of 114 °C. As to `Cc1nc(-c2cccc(CNc3ccccc3)c2)no1`, the melting point lay within 75 to 76 °C.

As to `Cc1c(C)c2c(c(C)c1NC(=O)CC(C)(C)C)C(N1CCCCC1)C(C)(C)O2` (stereo not given), the melting point was 229 to 230 °C. `Nc1ncnc2c1ncn2Cc1oc2ccccc2c(=O)c1-c1ccc(F)cc1` registered a melting point of 212 to 216 °C. `CC(=Cc1ccc(O)c(Cl)c1)[N+](=O)[O-]` yielded a melting point of 91 to 93 °C.

As for `Cc1ccc(-c2ccc3c(c2)C=C(C(=O)Nc2ccc(CNc4ccccc4)cc2)CCO3)cc1`, the melting point lay in the range of 157 to 158 °C.

Compound `C=C(C)n1c(=O)n(CCN(C)Cc2ccccc2)c2ccccc21` returned a melting point of 107 to 109 °C. Next, `Nc1ccc(NC(=O)[C@@H](NC(=O)c2ccc(C(=O)O)cc2)c2ccccc2)cc1`: 151 °C. On to `CC(=O)N[C@H]1CC[C@H](CCN2CCN(c3ncc(C)c4occc34)CC2)CC1`, for which the melting point came out at 208 °C. For the compound `CCCCCOc1ccc2cc(CCC(N)(CO)CO)ccc2c1`, the melting point lay in the range of 106 to 109 °C.

The compound `Nc1cnc(N2CCN(CCCC(=O)c3ccc(F)cc3)CC2)cc1N` displayed a melting point of 166 to 169 °C. Compound `Cc1cc(CCCCCCCOc2ccc(C3=N[C@@H](C(C)C)CO3)cc2)on1` had a melting point of 122 to 123 °C.

For `CCOCc1nc2c(N)nc3cc(OCc4ccccc4C)ccc3c2n1CC(C)C`, the melting point fell in the range of 216 to 218 °C.

`Cn1cc(C(=O)Nc2ccccc2-c2ccc(Cl)c(Cl)c2)c(C(F)(F)F)n1`: the melting point lay within 131 to 133 °C. Compound `CN1CCc2c(-c3ccc(F)cc3)c(C(=O)N(C)Cc3cc(C(F)(F)F)cc(C(F)(F)F)c3)n(C)c(=O)c2C1` returned a melting point of 156 to 157 °C. The result for `CS(=O)(=O)c1ccc(-c2cnn(-c3cccc(Cl)c3)c(=O)c2Cl)cc1` reads 203 to 204 °C; that for `COc1cc2sc(/C=C(\Oc3ccc(C(C)C)cc3)C(=O)O)cc2c(Cl)c1OC`, 255 to 256 °C; that for `CC1(C)CON(Cc2ccc(N3C(=O)c4cccnc4C3=O)cc2Cl)C1=O`, 139 to 141 °C. `COc1ccc(C2Sc3cccc4cccc(c34)NC(=O)C2O)cc1` (stereo not given) had a melting point of 218 to 219 °C. Turning to `CCOC(=O)C[C@H]1O[C@H](c2ccc(OCC)cc2OC)c2cc(Cl)ccc2N(CC(C)(C)C)C1=O` (relative stereo), the melting point fell in the range of 164 to 166 °C. `CC(=O)c1ccc(OCC(O)COc2ccc(C#N)cc2)cc1O` (stereo not given) yielded a melting point of 162 to 163 °C. The compound `COP(=O)(OC)c1cc(Oc2c(Cl)cc(C(F)(F)F)cc2Cl)ccc1[N+](=O)[O-]` came in with a melting point of 106 to 107 °C. As for `CN1CCN(c2cccc3ccc(Nc4ccccc4[N+](=O)[O-])cc23)CC1`, the melting point fell in the range of 87 to 94 °C. Turning to `CC(C)(C)NC(=O)[C@@H]1C[C@H](Cl)CN1C(=O)[C@@H](O)[C@@H](N)Cc1ccccc1`, the melting point was in the range of 126 to 130 °C.

As for `COC(=O)c1cccc(-c2ccc(O)cc2)c1`, the melting point lay in the range of 135 to 136 °C. `COc1ccccc1C1(NCCC(=O)OC(C)(C)C)C(=O)Nc2ccc(Cl)cc21` (stereo not given) gave a melting point of 170 °C. Next, `CCN1C(=O)C(C)(C)C(=O)N(C)c2cc(CN(CCn3ccc4oc(C)cc4c3=O)Cc3cccnc3Cl)ccc21`: 159 to 161 °C. In turn, `CC(C)(C)OC(=O)COc1cc(NC(=O)OC(C)(C)C)c(NC(=O)CC(=O)c2cccc(C#N)c2)cc1C#Cc1ccccc1` came in with a melting point of 95 °C. Take `NC(=O)CNC(=O)c1cccc(-c2ccnc3cc(Cc4cccc(C(F)(F)F)c4)sc23)c1`: the melting point was 183 to 184 °C.

`CCCc1nc2cc(C(=O)c3ccccc3)ccc2[nH]1` returned a melting point of 131 to 132 °C.

Compound `Cc1ccc(-c2cc(C(F)(F)F)n3cnc(-c4ccncc4)c3n2)cc1C(F)(F)F` came in with a melting point of 222 °C.

As to `CC(CO)(CO)NCc1cc2c3ccccc3ccc2c2ccccc12`, the melting point was in the range of 200 to 202 °C. Next, `Nc1c(CCO)cccc1C(=O)c1ccc(Br)cc1`: 126 to 127 °C. The compound `Cc1n[nH]c(-c2ccc(Br)cc2)c1NC(=O)c1cccnc1` had a melting point of 262 to 264 °C. The result for `COC(=O)CCCCCCCCCCCCCCCO` reads 54.2 °C; that for `CCOC(=O)C(Oc1ccc(-c2ccc(Cl)cc2)cc1)(C(F)(F)F)C(F)(F)F`, 44 to 45 °C; that for `CN(C)S(=O)(=O)c1cccc(Cl)c1S(N)(=O)=O`, 171 to 182 °C.

For the compound `NC(=O)CN1C(=O)[C@@H](NC(=O)[C@@H]2CCC(=O)C2)[C@H](c2ccccc2)Sc2ccccc21`, the melting point was 135 to 150 °C. With `CSc1ccc2ccc(N)nc2n1`, the melting point was determined as 158 °C.

In turn, `COc1cccc(Cn2c(C(=O)O)c(-c3ccc(C(=O)NC4CC4)cc3)c3ccccc32)c1` returned a melting point of 237 °C.

With `C(=NNc1ccccc1)c1cccnc1`, the melting point was 156 °C. `COc1ccc(C[C@H](NC(=O)OCc2ccccc2)C(=O)CCl)cc1` gave a melting point of 107 °C. Compound `Cc1nc2cc(Cl)ccc2c(=O)n1C` displayed a melting point of 162 to 165 °C. Compound `CCCCOCCOc1ccc(-c2ccc(N3CCC(COC(C)=O)C3)c(C=C(C)C(=O)O)c2)cc1` (stereo not given) came in with a melting point of 110 to 111 °C. `Clc1ccc(-c2c(-c3ccccc3)nn3ccccc23)nn1` registered a melting point of 206 °C.

`O=C(N[C@@H]1CCCC[C@H]1O)c1cnc(OCC(F)(F)F)c(-c2ccc(F)cc2)n1` yielded a melting point of 133 to 134 °C. `O=C1c2ccccc2-c2c(Cl)nc3ccccc3c21` displayed a melting point of 149 to 150 °C. The result for `O=C(Nc1ccc(Cl)cc1)NC1CCN(C(=O)Cc2c[nH]cn2)CC1` reads 174 to 176 °C.

The values are drawn from a melting point compilation (Tetko et al.; mined from patent text by program, amines drawn as free bases though some values may be those of a salt).
